Values quoted from earlier work, collected in article PMC4959786 (Clinical immunology (Orlando, Fla.), 2015).

Biological target: I-A^q (Mus musculus, UniProt P04227+P06342)
Conditions: result in words, earlier work

Chain of I-A^q (P04227 whole entry, looked up): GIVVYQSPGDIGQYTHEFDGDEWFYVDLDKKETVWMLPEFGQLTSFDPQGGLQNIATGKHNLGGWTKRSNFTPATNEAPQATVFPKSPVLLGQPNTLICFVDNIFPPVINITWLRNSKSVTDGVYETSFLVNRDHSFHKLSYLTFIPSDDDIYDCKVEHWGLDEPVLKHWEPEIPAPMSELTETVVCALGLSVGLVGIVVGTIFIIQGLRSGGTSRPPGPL
Chain of I-A^q (P06342 whole entry, looked up): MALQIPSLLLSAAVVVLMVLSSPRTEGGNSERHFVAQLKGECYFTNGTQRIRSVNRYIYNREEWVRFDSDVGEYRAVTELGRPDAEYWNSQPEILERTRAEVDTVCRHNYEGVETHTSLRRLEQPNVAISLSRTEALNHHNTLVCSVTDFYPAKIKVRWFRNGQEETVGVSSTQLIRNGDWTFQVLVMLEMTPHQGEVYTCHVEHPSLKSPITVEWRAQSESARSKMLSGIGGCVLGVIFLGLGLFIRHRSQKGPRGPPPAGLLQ

Sequence: GEBGABGNKGEQGPKGEBGP [A9]
- binding to I-A^q (ref [5], [6]): binds very weakly
- binding affinity for I-A^q (ref [6]): very weak binding affinity
